Reference: patent publication US4122274A, “3-Tetrazolo-5,6,7,8-substituted-pyrido[1,2-a]pyrimidin-4-ones” (priority 1977, dated 1978)
Where two headings read alike, the source gives them in different places.

Experiments:
[1] = system: rat Passive Cutaneous Anaphylaxis (PCA) response; test: reagin-mediated rat Passive Cutaneous Anaphylaxis (PCA) screening test; format: in vivo, rat (Sprague-Dawley)
Experimental: The reagin-mediated rat Passive Cutaneous Anaphylaxis (PCA) screening test used to evaluate the present compounds is generally regarded as one of the best animal models for use in predicting the antiallergy activity of test compounds in man. Briefly, the method consists of passive sensitization of skin sites on the test animals with reaginic antibodies followed after 24 hours by administration of the test drug and antigen challenge. The allergic response is measured by use of Evans' blue dye and is evaluated by the spot diameter at the injection site. Details of the test are provided below.
A substituted ovalbumin antigen is used both as immunogen and challenging antigen. The antigen is prepared as follows: 500 mg. ovalbumin (EA) and 500 mg. K2 CO3 are dissolved in 25 ml. distilled H2 O and stirred at room temperature for 5 minutes. Five hundred (500) mg. dinitrobenzene sulfonic acid, Na^+ salt, (previously recrystallized from hot absolute ethanol) is then added slowly with continued stirring. The reaction mixture is then immediately placed in the dark and allowed to proceed for 2 hours with constant stirring. After 2 hours the mixture is placed in suitable dialysis tubing and dialyzed against 5 changes (4 liters each) of distilled H2 O at 5° C. After dialysis the product is lyophilized and stored at room temperature in a brown or amber container. The antigen obtained will appear as a light yellow, amorphous solid which is very soluble in water or saline. It is designated as DNP denatured ovalbumin (DNP-d EA).
Adult, male Sprague-Dawley rats are used as a source of reagin-rich antisera for the PCA model. Immunization is by a combination of DNP-d EA on Al(OH)3 gel and B. pertussis vaccine. Preparation of the DNP-d EA-gel immunogen is as follows: Dissolve the DNP-d EA in TBS so as to give a concentration of 10 mg./ml. Slowly add 1 ml. of this solution to 10 ml. Al(OH)3 gel (10 mg. solids/ml.) with constant stirring at room temperature. Stir the mixture an additional 30 minutes to insure a uniform adsorption of antigen on gel.
The resulting preparation is then used in combination with phase I B. pertussis vaccine to immunize male S/D rats as follows: For each rat administer 0.1 ml. DNP-d EA-gel suspension intramuscularly in each hind leg (200 μg DNP-d EA and 2 mg. gel total dose). Follow these injections by the intraperitoneal administration of 1.0 ml. B. pertussis vaccine (10-20 × 10^9 organisms). The use of light ether anesthesia during this procedure is recommended to insure proper intramuscular and intraperitoneal injections. Nine days following immunization (but no longer than 10) the animals are exsanguinated by cardiac puncture or abdominal aorta cannulation under ether or pentobarbital anesthesia. The collected whole blood is allowed to clot, the serum separated by centrifugation and the individual serum samples stored frozen until assayed for IgE content.
Individual serum samples should be screened for reaginic antibody concentration before being pooled with other sera, as not all rats respond to immunization procedures with reagin production. A 1:50 saline dilution of serum from each immunized rat is used for this purpose. Intradermal injections of 0.05 ml. of the diluted sera are made in the shaven backs of two small female recipient rats, 100-120 gms. Several serum samples can be tested simultaneously in recipient animals. After a 24 to 48 hour latent period antigen challenge is accomplished by intravenous administration to each rat of 1 mg. DNP-d EA in 0.5 ml. of 0.5% Evans' blue dye in saline. Sera which show positive PCA reactions at the 1:50 dilution, as measured 20 to 30 minutes post-challenge are pooled, dispensed in small aliquots and stored at -70° C. or lower until used. Negative sera may be discarded.
The IgE titer of the antisera pool should then be determined. […]

[2] = treatment of bronchial asthma; cited from earlier work
[3] = system: release of mediators, e.g. histamine and SRS-A; settings: administered to asthmatic patients prior to inhalation of specific antigens; cited from earlier work
[4] = must be administered by inhalation; cited from earlier work
[5] = po, 10 min prior to antigen challenge, read-out: ID50 (dose of compound that inhibits 50% of the response), p.o.
[6] = iv, test compounds given 1-5 min prior to antigen challenge, DSCG at time of challenge, read-out: ID50 (dose of compound that inhibits 50% of the response), i.v.

| Compound | ED50 [1, 5] [mg/kg] | further results |
| --- | --- | --- |
| O=c1c(-c2nnn[nH]2)cnc2ccc(Cl)cn12 [Example 9, 7-Chloro-3-(1H-tetrazol-5-yl)-4H-pyrido[1,2-a]pyrimidin-4-one] | ~0.07 |  |
| CN1[C@@H]2CC[C@H]1C[C@@H](OC(=O)C(CO)c1ccccc1)C2 (stereo partly drawn) [atropine] |  | side effects [2]: cardiac stimulation and gastrointestinal distress |
| CCc1ccc2ncc(-c3nnn[nH]3)c(=O)n2c1 [Example 6, 7-Ethyl-3-(1H-tetrazol-5-yl)-4H-pyrido[1,2-a]pyrimidin-4-one] | 0.04 |  |
| CC(C)NCC(O)c1ccc(O)c(O)c1 (stereo not drawn) [isoproterenol] |  | side effects [2]: cardiac stimulation and gastrointestinal distress |
| Cc1ccc2ncc(-c3nnn[nH]3)c(=O)n2c1 [Example 4, 7-Methyl-3-(1H-tetrazol-5-yl)-4H-pyrido[1,2-a]pyrimidin-4-one] | ~0.1 |  |
| Cc1cccn2c(=O)c(-c3nnn[nH]3)cnc12 [Example 10, 9-Methyl-3-(1H-tetrazol-5-yl)-4H-pyrido[1,2-a]pyrimidin-4-one] | 0.0066 |  |
| CNC[C@H](O)c1ccc(O)c(O)c1 [epinephrine] |  | side effects [2]: cardiac stimulation and gastrointestinal distress |
| Cc1cc(C)c2ncc(-c3nnn[nH]3)c(=O)n2c1 [Example 11, 7,9-Dimethyl-3-(1H-tetrazol-5-yl)-4H-pyrido[1,2-a]pyrimidin-4-one] | 0.014 |  |
| O=c1c(-c2nnn[nH]2)cnc2ccc(-c3ccccc3)cn12 [Example 8, 7-Phenyl-3-(1H-tetrazol-5-yl)-4H-pyrido[1,2-a]pyrimidin-4-one] | 0.05 |  |
| CCc1cccn2c(=O)c(-c3nnn[nH]3)cnc12 [Example 12, 9-Ethyl-3-(1H-tetrazol-5-yl)-4H-pyrido[1,2-a]pyrimidin-4-one] | ~0.0033 |  |
| CCCCc1ccc2ncc(-c3nnn[nH]3)c(=O)n2c1 [Example 7, 7-n-Butyl-3-(1H-tetrazol-5-yl)-4H-pyrido[1,2-a]pyrimidin-4-one] | ~0.1 |  |
| Cc1ccn2c(=O)c(-c3nnn[nH]3)cnc2c1 [Example 5, 8-Methyl-3-(1H-tetrazol-5-yl)-4H-pyrido[1,2-a]pyrimidin-4-one] | 2.4 |  |
| O=c1c(-c2nnn[nH]2)cnc2ccccn12 [Example 1, 3-(1H-Tetrazol-5-yl)-4H-pyrido[1,2-a]pyrimidin-4-one] | ~0.1 | ED50 [1, 6]: 0.06 mg/kg |
| O=C(O)c1cc(=O)c2c(OCC(O)COc3cccc4oc(C(=O)O)cc(=O)c34)cccc2o1 [DSCG, Disodium cromoglycate, reference compound] | > 30 | inhibition of release of mediators, e.g. histamine and SRS-A [3]: inhibits the release of mediators; ED50 [1, 6]: ~0.6 mg/kg; oral absorption [4]: not orally absorbed |
